Assay results taken from patent US8716281B2, “Pyrimidine compounds that inhibit anaplastic lymphoma kinase” (Amgen Inc., priority 2010, dated 2014).

These compounds were tested against T1, wild-type human ALK cytoplasmic domain (amino acids 1058-1620) (Homo sapiens, UniProt Q9UM73) (assay: ALK Inhibition in Enzyme Assay (Lance TR-FRET)). Settings: 2 nM enzyme, ATP at 40 μM (Km apparent), 90 minutes, mean of three replicates; read-out: ALK IC50.
T1 construct: The cytoplasmic domain (amino acids 1058-1620) of wild-type human ALK; GST (N); made in house; host or cells: SF9 insect cells
Format: biochemical
In short: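 Purified enzyme phosphorylated a biotinylated peptide substrate for 90 minutes at room temperature. Reactions were stopped with 20 mM EDTA in 50 mM Tris (pH 7.5), 100 mM NaCl, 0.05% BSA, 0.1% Tween-20. Phosphopeptide was detected by TR-FRET with SA-APC and Eu-W1024 anti-phosphotyrosine antibody PT66, excitation 320 nm.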

T1 sequence (Q9UM73 1058-1620): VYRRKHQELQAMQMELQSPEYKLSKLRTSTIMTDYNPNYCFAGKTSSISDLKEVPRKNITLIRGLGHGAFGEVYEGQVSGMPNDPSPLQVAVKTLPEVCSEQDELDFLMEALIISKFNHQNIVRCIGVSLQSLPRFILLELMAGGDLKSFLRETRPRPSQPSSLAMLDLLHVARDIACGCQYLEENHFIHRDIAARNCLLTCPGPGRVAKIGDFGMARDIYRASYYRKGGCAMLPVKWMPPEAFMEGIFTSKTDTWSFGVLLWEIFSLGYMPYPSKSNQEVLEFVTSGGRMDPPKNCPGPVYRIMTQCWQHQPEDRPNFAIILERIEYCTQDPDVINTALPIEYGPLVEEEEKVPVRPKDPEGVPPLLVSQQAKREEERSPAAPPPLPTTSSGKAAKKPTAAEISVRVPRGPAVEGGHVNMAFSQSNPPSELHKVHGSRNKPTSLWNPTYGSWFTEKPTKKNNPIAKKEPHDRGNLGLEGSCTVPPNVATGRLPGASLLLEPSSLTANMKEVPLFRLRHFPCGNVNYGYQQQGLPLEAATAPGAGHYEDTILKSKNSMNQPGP

First: COc1cc(Nc2nccc(N3CCC[C@H](C(=O)NCc4ccc(C#N)cc4)C3)n2)cc(OC)c1OC [Example 115, (S)-N-(4-cyanobenzyl)-1-(2-((3,4,5-trimethoxyphenyl)amino)-4-pyrimidinyl)-3-piperidinecarboxamide]
Second: COc1cc(Nc2nccc(N3CCC[C@H](C(=O)NCc4ccc(Oc5ccccc5)cc4)C3)n2)cc(OC)c1OC [Example 116, (S)-N-(4-phenoxybenzyl)-1-(2-((3,4,5-trimethoxyphenyl)amino)-4-pyrimidinyl)-3-piperidinecarboxamide]
The IC50 of the first is higher: 100 to 1000 nM for the first, 50 to 100 nM for the second. The second is the more potent here.

First: COc1cc(Nc2nccc(N3CCC[C@H](C(=O)NCc4ccc(Br)cc4F)C3)n2)cc(OC)c1OC [Example 56, (S)-N-(4-bromo-2-fluorobenzyl)-1-(2-((3,4,5-trimethoxyphenyl)amino)-4-pyrimidinyl)-3-piperidinecarboxamide]
Second: COc1cc(Nc2nccc(N3CCC[C@H](C(=O)NCc4cccc(OC(C)C)c4)C3)n2)cc(OC)c1OC [Example 87, (S)-N-(3-(1-methylethoxy)benzyl)-1-(2-((3,4,5-trimethoxyphenyl)amino)-4-pyrimidinyl)-3-piperidinecarboxamide]
The IC50 of the first is lower: under 50 nM for the first, 100 to 1000 nM for the second. The first is the more potent here.

First: COc1cc(Nc2nccc(N3CCC[C@H](C(=O)NCCc4cn5ccccc5n4)C3)n2)cc(OC)c1OC [Example 61, (S)-N-(2-imidazo[1,2-a]pyridin-2-ylethyl)-1-(2-((3,4,5-trimethoxyphenyl)amino)-4-pyrimidinyl)-3-piperidinecarboxamide]
Second: COc1cc(Nc2nccc(N3CCC[C@H](C(=O)NCCOc4ccccc4)C3)n2)cc(OC)c1OC [Example 62, (S)-N-(2-phenoxyethyl)-1-(2-((3,4,5-trimethoxyphenyl)amino)-4-pyrimidinyl)-3-piperidinecarboxamide]
The IC50 of the first is higher: 5000 to 10000 nM for the first, 100 to 1000 nM for the second. The second is the more potent here.

`Cc1ccc(CNC(=O)[C@H]2CCCN(c3ccnc(Nc4cc(Cl)cc(Cl)c4)n3)C2)cc1` [Example 174, (3S)-1-(2-((3,5-dichlorophenyl)amino)-4-pyrimidinyl)-N-(4-methylbenzyl)-3-piperidinecarboxamide] and `Cc1ccc(CNC(=O)[C@H]2CCCN(c3ccnc(Nc4ccc(-c5cnco5)cc4)n3)C2)cc1` [Example 189, (S)-N-(4-methylbenzyl)-1-(2-(4-(oxazol-5-yl)phenylamino)py-rimidin-4-yl)piperidine-3-carboxamide] fall in the same range of IC50: 1000 to 5000 nM for the first, 1000 to 5000 nM for the second.

For `COc1cc(Nc2nc(C)cc(N3CCC[C@H](C(=O)NCc4ccc(C)cc4)C3)n2)cc(OC)c1OC` [Example 11, (S)-1-(6-Methyl-2-(3,4,5-Trimethoxyphenyl-Amino)Pyrimidin-4-Yl)-N-(4-Methylbenzyl)Piperidine-3-Carboxamide], the IC50 was 5000 to 10000 nM.
